Reference: the NIST ThermoML archive (doi:10.1016/j.fluid.2010.03.040)

Details: Capillary rise

CCOC(=O)CCCCC(=O)OCC [diethyl hexanedioate]
Details	surface tension liquid-gas [mN/m]
293.16 K	32.7
298.09 K	32.2
303.17 K	31.6
308.11 K	31
313.18 K	30.3
318.15 K	29.7
323.17 K	29.2
328.12 K	28.7
333.16 K	28.3
338.16 K	27.7
343.15 K	27.2
348.13 K	26.6
353.16 K	26.2
358.13 K	25.8
363.13 K	25.3
368.15 K	24.8
373.14 K	24.3

COCCOC [1,2-dimethoxyethane]
Details	surface tension liquid-gas [mN/m]
278.17 K	26.52
283.17 K	25.97
288.18 K	25.28
293.17 K	24.67
298.03 K	23.94
303.15 K	23.42
308.12 K	22.84
313.16 K	22.25
318.17 K	21.56
323.18 K	21.02
328.17 K	20.41
333.17 K	19.83
338.17 K	19.29
343.17 K	18.74
348.17 K	18.12
353.18 K	17.59
358.17 K	16.91
363.17 K	16.35
368.17 K	15.74
373.17 K	15.23

CCOC(=O)OCC [diethyl carbonate]
Details	surface tension liquid-gas [mN/m]
273.18 K	29.15
278.18 K	28.63
283.18 K	28.07
288.18 K	27.48
293.16 K	26.81
298.1 K	26.26
303.17 K	25.64
308.11 K	25.14
313.19 K	24.48
318.16 K	24.03
323.16 K	23.47
328.12 K	22.98
333.18 K	22.35
338.17 K	21.81
343.17 K	21.23
348.17 K	20.69
353.19 K	20.16
358.18 K	19.64
363.16 K	19.13
368.18 K	18.69
373.17 K	18.01
